Source: patent US11016100B2, “Methods for identifying modulators of ion channels” (X-Body, Inc., priority 2007, dated 2021)

Tested on: parental CHO cells
Details: parental CHO cells lacking hERG ion channels; potassium-free starvation buffer; FIG. 3
Protocol: This protocol employs potassium free starvation buffer to depolarize cells and thereby open ion channels such that screening ion channel modulators is possible. Colorimetric resonant reflectance biosensor plates were washed with 1×PBS for hydration baseline for 3 to 5 minutes. A PWV was determined for each of the wells. […] The plates were coated with 25.0 μl/well of fibronectin for 2 hrs at room temperature. The plates were blocked for 1 hour at room temperature or overnight at 4° C. by addition of 25.0 μl ovalbumin or BSA in PBS to the wells previously coated with fibronectin.
Starvation buffers were prepared with and without potassium. For 500.0 ml potassium-free starvation buffer the following reagents were used: 25 ml of 3M NaCl for 150 mM NaCl final; 10.0 ml for 20 mM HEPES; 1.0 ml for 2 mM calcium chloride; 0.5 ml for 2 mM magnesium chloride; 1.0 ml for 5 mM D-(+)-glucose; up to 500.0 ml with H2O HPLC. Potassium starvation buffer is prepared the same as above, but with 2 mM KCl added. […]
20.0 μl of potassium-containing starvation buffer was added to each well. […] The average number of cells/well was determined. […]
PWVs are taken for the biosensor plates for 3 to 5 minutes or until a stable read of less than 1-2 pm change/minute is attained. […]

**Q.** With `COc1cc(N)c(Cl)cc1C(=O)NC1CCN(CCCOc2ccc(F)cc2)CC1OC` (stereo not shown) [Cisapride monohydrate] as the molecule, how does the “effect of the inhibitors on cell swelling in parental CHO cells (PWV)” value read?
**A.** little to no effect
